The results in this text go back to US20130316022A1, “METHOD TO ENHANCE ANTIMICROBIAL ACTIVITY BY INCREASING pH” (University of Iowa Research Foundation, priority 2012, published 2013).

The nature of assay [1]: ASL pH measured in vivo with pH-sensitive planar optode on tracheal surface. More on the design: species or system pig.
Description: To assess pH in vivo, we used non-invasive dual lifetime referencing to interrogate a 3×3 mm planar optode (pH sensitive foil, PreSens GmbH, Regensburg, Germany)^13 applied directly to the tracheal surface. The device used to transmit and receive the excitation and emission light was a single channel pH meter (pH-1 mini; PreSens GmbH). The tip of the fiberoptic pH meter was kept at the same distance from the tracheal surface in all samples and confirmed by recording the amplitude registered by the device. Calibration before each set of measurements was done by placing the planar optode on the surface of a flat filter soaked in standard pH buffers.
(§1) To decrease airway pH in non-CF pigs, CO2 concentration was controlled in a humidified chamber (100% measured relative humidity, 25-30° C.) using 0 or 15% CO2 and 21% O2 in N2.
Another assay deals with S. aureus isolate 43SA. Nature of the assay: Bacterial killing by S. aureus-coated grids placed on tracheal surface in vivo.
Another assay concerns S. aureus. Conditions: bacteria on grids exposed for 30 seconds.

Protocol for S. aureus isolate 43SA: Bacteria were cultured to log phase growth and 1×10^8 bacteria were mixed with 0.1 mg/ml N-hydroxysulfosuccinimide (sulfo-NHS)-biotin (Thermo Scientific) for 1 hour at room temperature. Streptavidin-coated grids were then incubated with biotinylated bacteria for 30 minutes and rinsed in PBS.
Bacteria-coated grids were used in three preparations. They were placed on the airway surface in vivo in pigs. They were tested in ASL removed from pigs after methacholine stimulation. They were also placed on the apical surface of primary cultures of differentiated airway epithelia. In each case, after removal from ASL, they were immediately (2-3 seconds) rinsed with PBS and then immersed in PBS containing the fluorescent indicators SYTO 9 and propidium iodide (Live/Dead BacLight™ Bacterial Viability assay, Invitrogen). Propidium iodide staining and this assay indicate the percentage of dead cells (Invitrogen, Molecular Probes product information and Fig. S7). […]
For each experimental condition, time point, and/or animal, 2 or 3 grids were examined. For each grid, all live and dead bacteria were counted in 5-16 individual microscopic (60×) fields; each microscopic field contained about 100-1000 bacteria. […]
as §1

As for `O=C([O-])O.[Na+]` [NaHCO3], the “ASL pH” value in assay [1] (CF pigs, 50 μL 100 mM aerosolized onto airway surface) is reported as 7.43 ± 0.30 (7). The “% dead” value in the assay with S. aureus isolate 43SA (CF pigs, 50 μL 100 mM aerosolized onto airway surface, grids 30 seconds) was 64.4 ± 7.0 (5) %. As for ethanol [70% alcohol], the “% dead” value in the assay on S. aureus was found to be 97%. As for `O=C=O` [CO2, reference compound], the “ASL pH” value in assay [1] (non-CF pigs, tracheas exposed to 15% CO2 in vivo) is on record as 6.89 ± 0.15 (6). Moreover, the “% dead” value with S. aureus isolate 43SA (non-CF pigs, 15% CO2, grids on surface for 30 seconds) is listed as 18.5 ± 6.8 (4) %.
